The target in test [1] is LPA1 (Homo sapiens, UniProt Q92633). Briefly: LPA1 Migration Assay (Oris). Format: cell-based. Set-up: host or cells: primary fibroblasts (lung, dermal), HFL-1, 3T3 and CHO cells expressing LPA1R. To be noted: read-out: Cell Migration EC50. An excerpt:
LPA1 Migration Assay Migration of primary fibroblasts (including lung, dermal), HFL-1, 3T3 and CHO cells expressing LPA1R were monitored using the Oris™ assay (Platypus Technologies, Madison, Wis.). These cells were dye (Cell Tracker Green™) loaded and serum starved for 12-24 hrs. In response to chemoattractants such as LPA and serum, the cells migrated inward in to the exclusion (detection) zone. After fixing, fluorescent cells in the detection zone were counted using a high content reader. The ability of LPA1 antagonists to inhibit cell migration is quantified by plotting cell number vs. compound concentration and curve fitting the resulting dose-response curve to a 4 parameter logistic function.

The target of test [2] is T1, LPA/S1P GPCR of interest (Homo sapiens, UniProt Q92633).
T1 construct: host or cells: CHO
T1 sequence (Q92633 whole entry): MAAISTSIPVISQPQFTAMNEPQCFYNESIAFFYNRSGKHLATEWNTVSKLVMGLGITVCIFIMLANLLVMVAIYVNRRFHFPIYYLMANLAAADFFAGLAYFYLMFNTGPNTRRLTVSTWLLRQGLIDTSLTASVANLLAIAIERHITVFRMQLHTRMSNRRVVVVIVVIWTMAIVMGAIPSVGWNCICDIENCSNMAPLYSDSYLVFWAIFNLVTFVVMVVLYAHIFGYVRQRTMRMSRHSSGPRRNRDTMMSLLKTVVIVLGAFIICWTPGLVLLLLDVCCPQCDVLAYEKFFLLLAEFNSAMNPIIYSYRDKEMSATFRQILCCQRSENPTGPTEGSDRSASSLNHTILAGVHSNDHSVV
The test can be described thus: Beta-Arrestin based assay (PathHunter). Format: cell-based. In a few lines:
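EA Parental CHO cells (DiscoverX) were transfected with FuGENE (Roche) using CMV promoter-driven DNA constructs encoding the LPA/S1P GPCR of interest fused to a ProLink tag. Beta-arrestin recruitment in agonist mode was assessed 24-48 hrs later with PathHunter kits. Tests ran in quadruplicate in white 384 well plates, and end point luminescence was fit to a 4 parameter logistic function.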

Some results are limits rather than exact numbers.

Chain of LPA1 (Q92633 whole entry): as above

As to `Cc1cc(C2(C(=O)O)CC2)ccc1-c1cc2sc(-c3cnn(C)c3NC(=O)O[C@H](C)c3ccccc3)cc2s1` [IT260], the results for the EC50 in test [1] and in test [2] were 50 to 500 nM and below 50 nM, respectively.

On to `Cc1nsc(-c2ccc(-c3ccc(OC(C)(C)C(=O)O)c(F)c3)cc2)c1NC(=O)O[C@H](C)c1ccccc1` [IT507], for which the results for the EC50 in test [1] and in test [2] were above 500 nM and 50 to 500 nM, respectively.

On to `C[C@@H](OC(=O)Nc1c(-c2cc3sc(-c4cc(F)c(CC(=O)O)c(F)c4)cc3s2)nnn1C)c1ccccc1` [IT158], for which the EC50 in test [1] and in test [2] was 50 to 500 nM throughout.

In the case of `C[C@@H](OC(=O)Nc1c(-c2cc3sc(-c4ccc(CC(=O)O)c(F)c4)cc3s2)cnn1C)c1ccccc1` [IT164], the EC50 in test [1] was above 500 nM; in test [2], below 50 nM.

For `C[C@@H](OC(=O)Nc1c(-c2cc3sc(-c4cc(F)c(C5(C(=O)O)CC5)cc4F)cc3s2)nnn1C)c1ccccc1` [IT348], the values for the EC50 in test [1] and in test [2] were 50 to 500 nM and below 50 nM, respectively.

Turning to `CC(=O)NS(=O)(=O)c1ccc(-c2ccc(-c3onc(C)c3NC(=O)O[C@H](C)c3ccccc3)cc2)cc1` [IT131], the EC50 is above 500 nM in test [1] and 50 to 500 nM in test [2].

As to `Cc1noc(-c2ccc(-c3ccc(Oc4ccccc4C(=O)O)cn3)cc2)c1NC(=O)O[C@H](C)c1ccccc1` [IT344], the EC50 is 50 to 500 nM in test [1] and below 50 nM in test [2].

Regarding `C[C@@H](OC(=O)Nc1c(-c2ccc(-c3cc(F)c(Oc4ccsc4C(=O)O)c(F)c3)cc2)cnn1C)c1ccccc1` [IT465], the EC50 in test [1] and in test [2] was below 50 nM in each case.

With `Cc1nsc(-c2cc3sc(-c4ccc(CC(=O)O)nc4)cc3s2)c1NC(=O)O[C@H](C)c1ccccc1` [IT185], the EC50 in test [1] and in test [2] was above 500 nM in each case.

For the compound `Cc1nsc(-c2ccc(-c3ccc(OC4(C(=O)O)CC4)cc3)cc2)c1NC(=O)O[C@H](C)c1ccccc1` [IT513], the values for the EC50 in test [1] and in test [2] were 50 to 500 nM and below 50 nM, respectively.

As for `Cc1nsc(-c2cc3sc(-c4cnc(C5(C(=O)O)CC5)c(F)c4)cc3s2)c1NC(=O)O[C@H](C)c1ccccc1` [IT394], the EC50 is 50 to 500 nM in test [1] and below 50 nM in test [2].

Turning to `Cc1nsc(-c2cc(Cl)c(-c3cc4sc(C5(C(=O)O)CC5)cc4s3)cc2F)c1NC(=O)O[C@H](C)c1ccccc1` [IT281], the values for the EC50 in test [1] and in test [2] were 50 to 500 nM and below 50 nM, respectively.

`Cc1cc(CC(=O)O)ccc1-c1cc2sc(-c3nnn(C)c3NC(=O)O[C@H](C)c3ccccc3)cc2s1` [IT171]: the EC50 in test [1] is above 500 nM; in test [2] it was 50 to 500 nM.

For `Cc1nnn(-c2ccc(-c3ccc(Oc4ccccc4C(=O)O)cc3)cc2)c1NC(=O)O[C@H](C)c1ccccc1` [IT310], the figures for the EC50 in test [1] and in test [2] were above 500 nM and 50 to 500 nM, respectively.

As for `Cc1noc(-c2ccc(-c3ccc(Oc4ncncc4C(=O)O)cc3)cc2)c1NC(=O)O[C@H](C)c1ccccc1` [IT230], the EC50 in test [1] is 50 to 500 nM; in test [2], below 50 nM.

As for `C[C@@H](OC(=O)Nc1c(-c2cc3sc(-c4ccc(CC(=O)O)cc4Cl)cc3s2)cnn1C)c1ccccc1` [IT140], the EC50 is above 500 nM in test [1] and 50 to 500 nM in test [2].

Regarding `C[C@@H](OC(=O)Nc1c(-c2cc3sc(-c4ccc(C5(C(=O)O)CC5)nc4)cc3s2)nnn1C)c1ccccc1` [IT270], the EC50 was 50 to 500 nM in test [1] and below 50 nM in test [2].

Regarding `C[C@@H](OC(=O)Nc1c(-c2ccc(-c3ccc(Oc4ccc(F)cc4C(=O)O)cc3)cc2)nnn1C)c1ccccc1` [IT460], the EC50 in test [1] and in test [2] was below 50 nM in each case.

Take `CCOc1cc(CC(=O)O)ccc1-c1cc2sc(-c3snc(C)c3NC(=O)O[C@H](C)c3ccccc3)cc2s1` [IT192]: the EC50 in test [1] and in test [2] was above 500 nM each time.

As to `Cc1noc(-c2ccc(-c3ccc(Oc4ccsc4C(=O)O)cc3)cc2)c1NC(=O)O[C@H](C)c1ccccc1` [IT428], the figures for the EC50 in test [1] and in test [2] were 50 to 500 nM and below 50 nM, respectively.

In the case of `Cc1nsc(-c2ccc(-c3nnc(CC(=O)O)o3)cc2)c1NC(=O)O[C@H](C)c1ccccc1` [IT142], the EC50 in test [1] and in test [2] was above 500 nM each time.

For `C[C@@H](OC(=O)Nc1c(-c2ccc(-c3ccc(Oc4cccc(F)c4C(=O)O)cc3)cc2)nnn1C)c1ccccc1` [IT455], the EC50 in test [1] and in test [2] was below 50 nM in each case.

Regarding `Cc1nnn(-c2ccc(-c3cc(F)c(OC4(C(=O)O)CC4)c(F)c3)cc2)c1NC(=O)O[C@H](C)c1ccccc1` [IT313], the results for the EC50 in test [1] and in test [2] were above 500 nM and 50 to 500 nM, respectively.

Consider `Cc1nsc(-c2cc3sc(-c4ccc(CC(=O)O)cc4N)cc3s2)c1NC(=O)O[C@H](C)c1ccccc1` [IT182], for which the EC50 in test [1] and in test [2] was above 500 nM in each case.

For `C[C@@H](OC(=O)Nc1c(-c2cc3sc(-c4cc(F)c(C5(C(=O)O)CC5)cc4F)cc3s2)cnn1C)c1ccccc1` [IT347], the EC50 is 50 to 500 nM in test [1] and below 50 nM in test [2].

Turning to `C[C@@H](OC(=O)Nc1c(-c2cc3sc(-c4ccc(CC(=O)O)cc4)cc3s2)cnn1C)c1ccccc1` [IT132], the EC50 in test [1] was above 500 nM; in test [2], 50 to 500 nM.

As to `C[C@@H](OC(=O)Nc1c(-c2cc3sc(-c4ccc(C5(C(=O)O)CC5)c(F)c4F)cc3s2)cnn1C)c1ccccc1` [IT364], the EC50 in test [1] is 50 to 500 nM; in test [2], below 50 nM.

For the compound `Cc1noc(-c2ccc(-c3ccc(S(=O)(=O)NC(=O)C4CC4)cc3)cc2)c1NC(=O)O[C@H](C)c1ccccc1` [IT138], the results for the EC50 in test [1] and in test [2] were 50 to 500 nM and below 50 nM, respectively.

For `Cc1nsc(-c2cc(F)c(-c3nc4sc(C5(C(=O)O)CC5)cc4s3)cc2F)c1NC(=O)O[C@H](C)c1ccccc1` [IT201], the EC50 in test [1] was 50 to 500 nM; in test [2], below 50 nM.

On to `CCOc1cc(CC(=O)O)ccc1-c1cc2sc(-c3nnn(C)c3NC(=O)O[C@H](C)c3ccccc3)cc2s1` [IT191], for which the EC50 in test [1] and in test [2] was above 500 nM in each case.

For `C[C@@H](OC(=O)Nc1c(-c2ccc(-c3ccc(OC4(C(=O)O)CC4)c(F)c3)cc2)oc2ccccc12)c1ccccc1` [IT492], the EC50 in test [1] was above 500 nM; in test [2] it was 50 to 500 nM.

For `CCOC(=O)c1ccccc1Oc1ccc(-c2ccc(-c3nnn(C)c3NC(=O)O[C@H](C)c3ccccc3)cc2)cc1` [IT477], the EC50 in test [1] is 50 to 500 nM; in test [2], below 50 nM.

As for `C[C@@H](OC(=O)Nc1c(-c2cc3sc(-c4cc(F)c(CC(=O)O)c(F)c4)cc3s2)cnn1C)c1ccccc1` [IT157], the results for the EC50 in test [1] and in test [2] were above 500 nM and 50 to 500 nM, respectively.

`C[C@@H](OC(=O)Nc1c(-c2cc3sc(C#CC4(C(=O)O)CC4)cc3s2)nnn1C)c1ccccc1` [IT145]: the values for the EC50 in test [1] and in test [2] were above 500 nM and below 50 nM, respectively.

Turning to `C[C@@H](OC(=O)Nc1c(-c2ccc(-c3cc(F)c(OC4(C(=O)O)CC4)c(F)c3)cc2)oc2ccccc12)c1ccccc1` [IT491], the EC50 in test [1] is above 500 nM; in test [2] it was 50 to 500 nM.

Take `C[C@@H](OC(=O)Nc1c(-c2cc3sc(-c4cc(Cl)c(CC(=O)O)cc4F)cc3s2)cnn1C)c1ccccc1` [IT187]: the EC50 in test [1] and in test [2] was above 500 nM each time.

`Cc1noc(-c2ccc(-c3ccc(Oc4ccc(F)cc4C(=O)O)cc3)cc2)c1NC(=O)O[C@H](C)c1ccccc1` [IT459]: the EC50 is 50 to 500 nM in test [1] and below 50 nM in test [2].

Source of the values: patent US20140213538A1, “LYSOPHOSPHATIDIC ACID RECEPTOR ANTAGONISTS” (InterMune, Inc., priority 2013, published 2014).
